Patent publication US4778912A, “Phospholipid derivatives” (priority 1985, dated 1988)
“Also recorded” adds a separate entry of the source. Like-named read-outs stand apart in the source and are kept apart here.

Tests used:
platelet [1] = settings: background; cited from earlier work
platelet [2] = experiment: Effect on platelet: platelet aggregation (PAF activity) in platelet rich plasma; type: cell-based, male rabbit; settings: Oryctolagus cuniculus, Table 5, rabbit PRP, 400,000 cells/1 μl, read-out: PAF activity EC50 (drug concentration causing 50% platelet aggregation)
Protocol: This PRP was further centrifuged at 3,000 r.p.m. for 15 minutes to obtain platelet poor plasma (PPP). By using this PPP, the PRP was diluted and so adjusted as to have a constant platelet concentration (400,000 cells/1 μl). […] Platelet aggregation was measured by using a platelet aggregometer (manufactured by Rika Denki Co. in Japan).

MM46 cells = experiment: Antitumor action in C3H/He mice inoculated intraperitoneally with MM46 cells (life-span prolongation, 60-day survivors); type: in vivo; settings: Table 2
Protocol: (i) C3H/He mice (a group consisting of five mice) were inoculated intraperitoneally with 1×10^4 MM46 cells per mouse, and each mouse was intraperitoneally given 0.25 mg of drug for consecutive 4 days, starting from the second day after the inoculation.
(ii) In the above test, each mouse was inoculated intraperitoneally with 1×10^5 MM46 cells and 0.25 mg of drug was given intraperitoneally to each mouse for consecutive 4 days, starting from the second day after the inoculation.
The assay was carried out under the same conditions as Test Example 2-i.

Sarcoma 180 cells = experiment: Antitumor action in ICR mice inoculated intraperitoneally with Sarcoma 180 cells (life-span prolongation, 60-day survivors); type: in vivo
Protocol: The assay was carried out under the same conditions as Test Example 1-i.

[3] = background, cited from earlier work
tumor = settings: background; cited from earlier work
mouse = settings: iv administration; cited from earlier work

For `CCCCCCCCCCCCCCCCCCOCC(COP(=O)([O-])OCC[N+](C)(C)C)OC` (stereo not drawn) [Compound (III), reference compound], the “platelet activating / platelet aggregation action (in words)” value (platelet [1]) is given as “possess a platelet activating action”, the EC50 (platelet [2]) is given as 30 µM and the responders at 0.25 mg (MM46 cells; 1440 h, 1×10^4 MM46 cells, 0.25 mg/mouse ip, 4 days, read-out: 60th day: No. of survived mice/No. of tested mice (converted)) is given as 0%. The response vs control in vivo at 0.25 mg (MM46 cells; Mus musculus, ip, 1×10^4 MM46 cells ip, 0.25 mg/mouse ip for consecutive 4 days from second day, only mice surviving less than 60 days, read-out: Life-span prolongation ratio (T/C %)) was 155%, the “life-span prolongation ratio compared with the control group (in words)” value (Sarcoma 180 cells; 1 mg/mouse, for its toxicity) was “smaller life-span prolongation ratio than the control group” and the responders at 0.33 mg (Sarcoma 180 cells; Sarcoma-180, 1440 h, Table 1, 0.33 mg/mouse ip, three times, read-out: 60th day: No. of survived mice/No. of tested mice (converted)) was 0%. For the same compound, the response vs control in vivo at 0.33 mg (Sarcoma 180 cells; Table 1, 1×10^5 Sarcoma 180 cells ip, 0.33 mg/mouse ip, three times (1 hour, 1 day, 2 days after inoculation), only mice surviving less than 60 days, read-out: Life-span prolongation ratio (T/C %)) was 162%, the “side effects and toxicity (in words)” value [3] was “both blood-pressure lowering and topically irritating actions are observed; also recorded: high degree of its toxicity” and the “antitumor action (in words)” value (tumor) was “exhibit an antitumor action”.

For `CCCCCCCCCCCCCCCCCCOCC(COP(=O)([O-])OCC[N+](C)(C)C)OC(C)=O` (stereo not drawn) [Compound (II)], the “platelet activating / platelet aggregation action (in words)” value (platelet [1]) is given as “strong platelet aggregation action”, the “side effects and toxicity (in words)” value ([3]; listed as PAF) is given as “neutrophil-activating, tissue-impairing, vessel-permeability enhancing, blood-pressure lowering, heart function inhibiting, bronchoconstrictor and other actions; also recorded: toxicity for warm-blooded animals is very high” and the “fatal dose for a mouse” value (mouse) is given as “about 50 mg/kg”.
